# From article PMC9610943, “Truncated Pleurocidin Derivative with High Pepsin Hydrolysis Resistance to Combat Multidrug-Resistant Pathogens” (Pharmaceutics, 2022)
# Where no end group is shown, it is not given here.
# Assays:
# MRSA 1530 = experiment: microbe, parasite or virus in culture; type: cell-based, Staphylococcus aureus; details: 1530
# Description: (§1) S. aureus ATCC 29213, E. coli ATCC 25922, S. enteritidis ATCC 13076 and A. baumannii ATCC 19609 were obtained from the American Type Culture Collection (ATCC). The remaining strains used in the experiment were all preserved strains in our laboratory. All strains were cultured in nutrient broth overnight to the logarithmic phase at 37 °C prior to each experiment.
# (§2) The MICs of all drugs were determined by micro-broth dilution method according to CLSI 2018 guidelines. Briefly, a single colony of the bacterial strain was transferred to 1 mL of Mueller Hilton broth (MHB) and overnight at 37 °C and then 10 μL were cultured in a new 1 mL medium for 4 to 6 h, and then the bacterial culture at the logarithmic phase was diluted to 1 × 10^6 CFUs/mL. The assay was performed by adding 100 μL of each peptide solution at various concentrations (0.25 to 128 μg/mL) and 100 μL of diluted bacterial culture to different wells of a 96-well microtiter plate (Corning, NY, USA). After incubation at 37 °C for 16 to 18 h and then read its MIC value. MIC value is defined as the lowest drug concentration without visible bacteria.
# MRSA T144 [1] = experiment: microbe, parasite or virus in culture; type: cell-based, Staphylococcus aureus; details: T144
# Description: as §1, §2
# A. baumannii ATCC 19609 = experiment: microbe, parasite or virus in culture; type: cell-based; details: ATCC 19609
# Description: as §1, §2
# E. coli 1F28 (tet(X4)) = experiment: microbe, parasite or virus in culture; type: cell-based; details: 1F28 (tet(X4))
# Description: as §1, §2
# E. coli ATCC 25922 = experiment: microbe, parasite or virus in culture; type: cell-based; details: ATCC 25922
# Description: as §1, §2
# [2] = test system: E. coli B2 (blaNDM-5 + mcr-1); experiment: microbe, parasite or virus in culture; type: cell-based; details: B2 (blaNDM-5 + mcr-1)
# Description: as §1, §2
# E. coli B3-1 (tet(X4)) = experiment: microbe, parasite or virus in culture; type: cell-based; details: B3-1 (tet(X4))
# Description: as §1, §2
# E. coli C3 (blaNDM-1) = experiment: microbe, parasite or virus in culture; type: cell-based; details: C3 (blaNDM-1)
# Description: as §1, §2
# E. coli CP131 (mcr-3) = experiment: microbe, parasite or virus in culture; type: cell-based; details: CP131 (mcr-3)
# Description: as §1, §2
# E. coli G6 (blaNDM-5) = experiment: microbe, parasite or virus in culture; type: cell-based; details: G6 (blaNDM-5)
# Description: as §1, §2
# E. coli G92 (mcr-1) = experiment: microbe, parasite or virus in culture; type: cell-based; details: G92 (mcr-1)
# Description: as §1, §2
# [3] = test system: E. faecalis A4 (VRE, VanA); experiment: microbe, parasite or virus in culture; type: cell-based; details: A4 (VRE, VanA)
# Description: as §1, §2
# [4] = test system: P. aeruginosa (VIM + tmexCD1-torJ1); experiment: microbe, parasite or virus in culture; type: cell-based; details: VIM + tmexCD1-torJ1
# Description: as §1, §2
# P. aeruginosa PA14 = experiment: microbe, parasite or virus in culture; type: cell-based; details: PA14
# Description: as §1, §2
# [5] = test system: S. aureus 215 (cfr + LZD^R); experiment: microbe, parasite or virus in culture; type: cell-based; details: S. aureus 215 (cfr + LZD^R); micro-broth dilution CLSI 2018, MHB, 37 °C, 16 to 18 h
# Description: as §1, §2
# S. aureus ATCC 29213 = experiment: microbe, parasite or virus in culture; type: cell-based; details: ATCC 29213
# Description: as §1, §2
# S. aureus G16 (RIF^R) = experiment: microbe, parasite or virus in culture; type: cell-based; details: S. aureus G16 (RIF^R); micro-broth dilution CLSI 2018, MHB, 37 °C, 16 to 18 h
# Description: as §1, §2
# [6] = test system: S. enteritidis ATCC 13076; experiment: microbe, parasite or virus in culture; type: cell-based; details: ATCC 13076
# Description: as §1, §2
# [7] = test system: P. cibarius HNCF44W (blaNDM-1+ tet(X6)); experiment: organism not typed; type: cell-based
# Description: as §1, §2
# MRSA T144 [8] = type: cell-based, Staphylococcus aureus
# Description: as §2
# (§3) Then, the antibacterial activity of the peptides affected by different temperatures and pH were determined according to the determination steps of MICs test.
# (§4) In MHB medium, Na^+, K^+, Mg^2+ and Ca^2+ with the final concentrations of 10 mM, fetal bovine serum, plasma or DMEM medium (Hyclone, Logan, UT, USA) with the final concentrations of 10% was added, and then MIC values were measured to evaluate the effects of different cations, serum and plasma on the antibacterial activity of peptides.
# (§5) The peptide was incubated with protease (pepsin, trypsin and papain) (Solarbio, Beijing, China) with a final concentration of 1 mg/mL at 37 °C for 1 h, then the mixture of peptide and protease was heated at 100 °C for 30 min, then centrifuged at 13,000× g for 30 min, and the supernatant was taken for MIC determination.
# E. coli B2 = type: cell-based
# Description: as §2, §3, §4, §5
sequence,measurement,setting,value
GWKSFFKKFKHVWK [GK-3],MIC,MRSA 1530,16 µg/mL
same,MIC,MRSA T144 [1],8 µg/mL
same,MIC,A. baumannii ATCC 19609,4 µg/mL
same,MIC,E. coli 1F28 (tet(X4)),16 µg/mL
same,MIC,E. coli ATCC 25922,8 µg/mL
same,MIC,[2],4 µg/mL
same,MIC,E. coli B3-1 (tet(X4)),2 µg/mL
same,MIC,E. coli C3 (blaNDM-1),4 µg/mL
same,MIC,E. coli CP131 (mcr-3),2 µg/mL
same,MIC,E. coli G6 (blaNDM-5),4 µg/mL
same,MIC,E. coli G92 (mcr-1),2 µg/mL
same,MIC,[3],32 µg/mL
same,MIC,[4],16 µg/mL
same,MIC,P. aeruginosa PA14,64 µg/mL
same,MIC,[5],4 µg/mL
same,MIC,S. aureus ATCC 29213,4 µg/mL
same,MIC,S. aureus G16 (RIF^R),8 µg/mL
same,MIC,[6],4 µg/mL
same,MIC,[7],8 µg/mL
same,MIC after treatment at 121 °C,MRSA T144 [8]; T144,8 µg/mL
same,MIC in DMEM (10%),MRSA T144 [8]; T144,4 µg/mL
same,MIC in Plasma (10%),MRSA T144 [8]; T144,4 µg/mL
same,MIC in Serum (10%),MRSA T144 [8]; T144,8 µg/mL
same,MIC in presence of Ca^2+,MRSA T144 [8]; T144,>128 µg/mL
same,MIC in presence of K^+,MRSA T144 [8]; T144,4 µg/mL
same,MIC in presence of Mg^2+,MRSA T144 [8]; T144,8 µg/mL
same,MIC in presence of Na^+,MRSA T144 [8]; T144,2 µg/mL
same,"MIC, Control",MRSA T144 [8]; T144,8 µg/mL
same,MIC after Papain treatment,"MRSA T144 [8]; T144, 1 h",>128 µg/mL
same,MIC after Pepsin treatment,"MRSA T144 [8]; T144, 1 h",64 µg/mL
same,MIC after Trypsin treatment,"MRSA T144 [8]; T144, 1 h",>128 µg/mL
same,MIC after treatment at 40 °C,"MRSA T144 [8]; T144, 1 h",4 µg/mL
same,MIC after treatment at 60 °C,"MRSA T144 [8]; T144, 1 h",2 µg/mL
same,MIC after treatment at 80 °C,"MRSA T144 [8]; T144, 1 h",4 µg/mL
same,MIC after treatment at 100 °C,"MRSA T144 [8]; T144, 1 h",8 µg/mL
same,MIC after treatment at pH 2,"MRSA T144 [8]; T144, 1 h, pH 2",4 µg/mL
same,MIC after treatment at pH 4,"MRSA T144 [8]; T144, 1 h, pH 4",4 µg/mL
same,MIC after treatment at pH 6,"MRSA T144 [8]; T144, 1 h, pH 6",4 µg/mL
same,MIC after treatment at pH 8,"MRSA T144 [8]; T144, 1 h, pH 8",4 µg/mL
same,MIC after treatment at pH 10,"MRSA T144 [8]; T144, 1 h, pH 10",4 µg/mL
same,MIC after treatment at pH 12,"MRSA T144 [8]; T144, 1 h, pH 12",4 µg/mL
same,MIC after treatment at 121 °C,E. coli B2; B2,4 µg/mL
same,MIC in DMEM (10%),E. coli B2; B2,4 µg/mL
same,MIC in Plasma (10%),E. coli B2; B2,0.5 µg/mL
same,MIC in Serum (10%),E. coli B2; B2,8 µg/mL
same,MIC in presence of Ca^2+,E. coli B2; B2,>128 µg/mL
same,MIC in presence of K^+,E. coli B2; B2,2 µg/mL
same,MIC in presence of Mg^2+,E. coli B2; B2,32 µg/mL
same,MIC in presence of Na^+,E. coli B2; B2,2 µg/mL
same,"MIC, Control",E. coli B2; B2,4 µg/mL
same,MIC after Papain treatment,"E. coli B2; B2, 1 h",>128 µg/mL
same,MIC after Pepsin treatment,"E. coli B2; B2, 1 h",64 µg/mL
same,MIC after Trypsin treatment,"E. coli B2; B2, 1 h",>128 µg/mL
same,MIC after treatment at 40 °C,"E. coli B2; B2, 1 h",2 µg/mL
same,MIC after treatment at 60 °C,"E. coli B2; B2, 1 h",2 µg/mL
same,MIC after treatment at 80 °C,"E. coli B2; B2, 1 h",2 µg/mL
same,MIC after treatment at 100 °C,"E. coli B2; B2, 1 h",4 µg/mL
same,MIC after treatment at pH 2,"E. coli B2; B2, 1 h, pH 2",4 µg/mL
same,MIC after treatment at pH 4,"E. coli B2; B2, 1 h, pH 4",2 µg/mL
same,MIC after treatment at pH 6,"E. coli B2; B2, 1 h, pH 6",2 µg/mL
same,MIC after treatment at pH 8,"E. coli B2; B2, 1 h, pH 8",2 µg/mL
same,MIC after treatment at pH 10,"E. coli B2; B2, 1 h, pH 10",2 µg/mL
same,MIC after treatment at pH 12,"E. coli B2; B2, 1 h, pH 12",2 µg/mL
